Source: article PMC11836371, “Virtual fragment screening for DNA repair inhibitors in vast chemical space” (Nature Communications, 2025)
Values after ≈ are worked out from the molar mass of the structure shown. Values joined by “and” are separate entries in the source; they are usually repeats but may differ in a detail not shown here. Equal entries are not always repeated. Where two headings read alike, the source gives them in different places.

How the values were obtained:
human OGG1 enzyme = human OGG1 enzyme (Homo sapiens, UniProt O15527); assay: OGG1 glycosylase activity assay (enzyme inhibition, APE1-coupled fluorescence); type: biochemical
human OGG1 enzyme, sequence (O15527 whole entry): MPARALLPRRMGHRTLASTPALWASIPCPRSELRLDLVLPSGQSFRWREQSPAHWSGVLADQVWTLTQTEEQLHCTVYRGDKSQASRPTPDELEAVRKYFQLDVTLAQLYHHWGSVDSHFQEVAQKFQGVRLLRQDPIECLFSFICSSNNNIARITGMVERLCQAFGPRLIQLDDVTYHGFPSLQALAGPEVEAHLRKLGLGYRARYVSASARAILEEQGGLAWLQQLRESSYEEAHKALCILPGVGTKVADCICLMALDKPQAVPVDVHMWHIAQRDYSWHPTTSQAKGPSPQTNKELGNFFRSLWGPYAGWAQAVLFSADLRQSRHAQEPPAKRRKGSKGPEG
Experimental: “8” signifies 8-oxoA and “FAM” and “Dab” signify fluorescein and dabcyl (TriLink Biotech). Briefly, compounds dissolved in DMSO were dispensed using an Echo 550 (Labcyte), followed by transfer of enzyme and substrate solutions manually with a 16-channel pipette or with a Multidrop (Thermo Scientific). The plates were centrifuged, sealed and incubated at room temperature overnight (15 h) and read the following morning in an Hidex Sense plate reader (Hidex Oy) using a 485-nm filter with a bandwidth of 10 nm for excitation and a 535-nm filter with a bandwidth of 20 nm for emission.

[1] = tested on: NF-κB activation in HEK293T pGF NF-κB cells; assay: TNF-α induced NF-κB activation assay; type: cell-based; conditions: for EC50: Homo sapiens, HEK-293T, NFκB activation assay, ± SD, read-out: pEC50 (converted)
Experimental: The inhibition of TNF-α induced NF-κB activation was measured in HEK293T cells transfected with the pGreenfire NF-κB plasmid. This is a plasmid that has NF-κB response elements (TRE) coupled to GFP and luciferase expression. When the NF-κB is activated by TNF-α, it binds to the TRE and induces GFP expression, and the fluorescence can be measured in a plate reader. The cells were authenticated with STR profiling, frozen down and these stocks were used in experiments. The HEK293T pGF NF-κB cells were kept in DMEM with 5% FBS and 1% P/S but, when seeded for the assay the medium was changed to DMEM FluoroBrite with 1% dialyzed FBS. All cell culture reagents were purchased from Thermo Fisher Scientific. Compounds were nano-dispensed (Echo acoustic dispenser) in 96-well, black/clear, assay plates (Corning #3904), duplicate plates, in 8-points dose-response curves, 1:2 dilutions, with DMSO compensation (0.3% DMSO). Cells were seeded at 30000 cells/well in medium containing 10 ng/mL of TNF-α (Sigma-Aldrich), except negative control wells which only contained cells in medium. Cells were cultured for 24 hours in a humidified incubator at 37 °C with 5% CO2 after which the GFP fluorescence was measured in a Sense plate reader (Hidex) with ex485/em535. The RFU data from the duplicate plates were combined to calculate % inhibition of NF-κB activation and IC50-values were calculated using XLfit (IDBS). In parallel with the NF-κB assay, a CellTiterGlo (Promega) cell viability assay was run to exclude compounds affecting cell viability. Compounds were nano-dispensed (Echo acoustic dispenser) in assay plates in 11-points dose-response curves, 1:3 dilutions, without DMSO compensation, with duplicates on the same plate. Cells were seeded at 7500 cells/well in 25 µL medium (DMEM FluoroBrite with 1% dialyzed FBS) containing 10 ng/mL TNF-α and cultured for 24 hours, with column 24 containing only culture medium. After equilibration to room temperature, the CellTiterGlo reagents were mixed and 25 µL/well were added to the cell plate. After 2 min mixing of the plate on an orbital shaker, the plate was incubated for 10 min at room temperature followed by luminescence reading in Sense. The cell viability was calculated compared to untreated control wells and the EC50 values were determined in XLfit (IDBS). […]

A2780 cells = assay: Cancer cell viability assay (resazurin), A2780; type: cell-based; set-up: key to cell viability, cytotoxicity curve (Figure3H): % viability relative to untreated control wells; conditions: for percentage cell viability: A2780, 100 μM, 100 µM; for percentage cell viability / viability at 100 µM: two independent experiments; for viability at 100 µM: A2780, A2780, 100 μM, read-out: percentage cell viability
Experimental: (§1) Three different cancer cell lines A2780 (ovarian cancer, ECACC 93112519), A549 (lung cancer, ATCC 60150896) and HCT116 (colon cancer, ATCC CCL-247), and one immortalized fibroblast cell line (BJhTERT) as control, were seeded in black/clear 384-well plates (Corning #3764), 50 µL/well, containing 11 concentrations, nano-dispensed, dose-response curves of the test compounds. A2780, HCT116, and HEK293T cell lines were authenticated with STR profiling, frozen down, and these stocks were used in experiments. The A2780 cells were cultured in RPMI 1640, the A549 and BJhTERT cells in DMEM, and the HCT116 cells in McCoys 5 A medium. All media were supplemented with 10% FBS and 1% P/S. All cell culture media, additives, and reagents were purchased from Thermo Fisher Scientific. The cell plates were incubated 72 hours in a humidified incubator at 37 °C with 5% CO2, after which resazurin (Sigma-Aldrich), 10 µL/well, was added to a final concentration of 10 µg/mL. The plates were incubated for 6 hours with resazurin followed by fluorescence readings in a Sense plate reader (Hidex), resorufin protocol (ex 544 nm/em 595 nm). The cell viability was calculated compared to untreated control wells and the EC50 values were determined in XLfit (IDBS).

HCT116 cells = assay: Cancer cell viability assay (resazurin), HCT116; type: cell-based; conditions: two independent experiments; for percentage cell viability: HCT116, 100 μM, 100 µM; for viability at 100 µM: Homo sapiens, HCT-116, HCT116, 100 μM, read-out: percentage cell viability
Experimental: as §1

[2] = Metabolic stability in human liver microsomes; type: in vitro ADME; conditions: pH 7.4, intrinsic clearance
Experimental: Human liver microsomes were purchased from BioIVT. Metabolic stability was determined in 0.5 mg/mL human liver microsomes at a compound concentration of 1 µM in 100 mM KPO4 buffer pH 7.4 in a total incubation volume of 500 µL. The reaction was initiated by the addition of 1 mM NADPH. At various incubation times, i.e., at 0, 5, 10, 20, 40, and 60 min, a sample was withdrawn from the incubation and the reaction was terminated by the addition of cold acetonitrile with warfarin as an internal standard. The amount of parent compound remaining was analyzed by liquid chromatography coupled to triple quadrupole mass spectrometry (LC-MS/MS).

[3] = Plasma protein binding in human plasma (RED); type: in vitro ADME; conditions: plasma (50% plasma, 50% isotonic buffer), pH 7.4, read-out: Protein plasma binding, fu (%)
Experimental: Pooled human plasma was provided by Uppsala Academic Hospital and was collected from two donors (non-smoking) (citric acid). In brief, 0.2 mL of the plasma (50% plasma, 50% isotonic buffer) test solution (typically 10 µM final compound concentration) was transferred to the membrane tube in the RED insert (ThermoFisher Scientific). 0.35 ml isotonic phosphate buffer pH 7.4 was added to the other side of the membrane. The 96-well base plate was then sealed with an adhesive plastic film (Scotch Pad) to prevent evaporation. The sample was incubated with rapid rotation (>>900 rpm) on a Kisker rotational incubator at 37 °C for 4 h to achieve equilibrium. Prior to LC-MS/MS analysis the plasma and buffer samples were treated with the addition of Methanol (1:3) containing Warfarin as an internal standard to precipitate proteins. The standard curve was created using the plasma standard. The plate was then sealed, and centrifuged and the supernatant was analyzed by liquid chromatography coupled to triple quadrupole mass spectrometry (LC-MS/MS).

Thermodynamic solubility = type: physicochemical; conditions: for solubility thermodynamic: thermodynamic from solid
[4] = A2780, Log conc. (M) 1.69824e-9
[5] = A2780, Log conc. (M) 5.12861e-9
[6] = A2780, Log conc. (M) 1.51356e-8
[7] = A2780, Log conc. (M) 4.57088e-8
[8] = A2780, Log conc. (M) 1.38038e-7
[9] = A2780, Log conc. (M) 1.23027e-6
[10] = A2780, Log conc. (M) 3.71535e-6
[11] = A2780, Log conc. (M) 1.12202e-5
[12] = A2780, Log conc. (M) 3.31131e-5

## Cc1nc(-c2ccc(CC(=O)Nc3noc4c3CCCC4)cc2)c(C)[nH]1 [compound 17]
Human OGG1 enzyme; Concentration (M) 1.93e-7
  OGG1 inhibition, dose-response (Figure2C): 17.95 and 20.93 and 16.93 and 26.66
Human OGG1 enzyme; Concentration (M) 3.87e-7
  OGG1 inhibition, dose-response (Figure2C): 29.14 and 34.59 and 30.82 and 38.2
Human OGG1 enzyme; Concentration (M) 7.73e-7
  OGG1 inhibition, dose-response (Figure2C): 44.06 and 48.74 and 48.24 and 52.23
Human OGG1 enzyme; Concentration (M) 1.55e-6
  OGG1 inhibition, dose-response (Figure2C): 58.26 and 62.87 and 66.96 and 67.73
Human OGG1 enzyme; Concentration (M) 3.09e-6
  OGG1 inhibition, dose-response (Figure2C): 72.68 and 77.92 and 76.19 and 83.17
Human OGG1 enzyme; Concentration (M) 6.19e-6
  OGG1 inhibition, dose-response (Figure2C): 85.12 and 84.21 and 85.13 and 86.27
Human OGG1 enzyme; Concentration (M) 1.24e-5
  OGG1 inhibition, dose-response (Figure2C): 90.55 and 92.85 and 89.92 and 91.47
Human OGG1 enzyme; Concentration (M) 2.48e-5
  OGG1 inhibition, dose-response (Figure2C): 92.75 and 97.64 and 93.54 and 94.76
Human OGG1 enzyme; Concentration (M) 4.95e-5
  OGG1 inhibition, dose-response (Figure2C): 96.49 and 97.45 and 94.85 and 97.57
Human OGG1 enzyme; Concentration (M) 9.9e-5
  OGG1 inhibition, dose-response (Figure2C): 96.97 and 96.91 and 94.08 and 97.24
Human OGG1 enzyme; Figure 3B source data, three independent experiments, read-out: IC50 OGG1
  IC50: 0.505 µM and 0.495 µM and 0.518 µM
Human OGG1 enzyme; ratio of IC50 values
  increase of inhibitory potency compared to fragment 1: > 165 fold
Human OGG1 enzyme; read-out: IC50
  IC50: 0.6 µM
[1]
  EC50: 19.1 µM
A2780 cells
  percentage cell viability: 6.29%
A2780 cells; Homo sapiens
  viability at 100 µM: 5.42%
HCT116 cells
  percentage cell viability: 23.58%
  viability at 100 µM: 11.8%
[2]
  microsomal CLint at 1 µM: 23.9 µL/min/mg
[3]
  fraction unbound at 4 h, 10 µM: 0.014
Thermodynamic solubility
  fold higher solubility than TH5487: > 600 fold and > 667 fold
  solubility thermodynamic: 667 µM (≈ 234 µg/mL)

## O=C(Nc1ccc(I)cc1)N1CCC(n2c(=O)[nH]c3c(Br)cccc32)CC1 [TH5487, reference compound]
Human OGG1 enzyme; read-out: IC50
  IC50: 0.34 µM
[1]; Concentration 2.34e-7, single replicates
  % inhibition of NF-κB activation (Figure3F): 18.9% and 16.9% and 37.3% and 20.7% and 19.4% and 19.3%
[1]; Concentration 4.69e-7, single replicates
  % inhibition of NF-κB activation (Figure3F): 18.1% and 35.6% and 25.7% and 21.2% and 9.2%
[1]; Concentration 9.38e-7, single replicates
  % inhibition of NF-κB activation (Figure3F): 12.4% and 13.4% and 36.2% and 34.5% and 36.5% and 30%
[1]; Concentration 1.88e-6, single replicates
  % inhibition of NF-κB activation (Figure3F): 21% and 33.9% and 49.1% and 39.2% and 40.4% and 37.2%
[1]; Concentration 3.75e-6, single replicates
  % inhibition of NF-κB activation (Figure3F): 58.6% and 64.7% and 55% and 52% and 44.1% and 44%
[1]; Concentration 7.5e-6, single replicates
  % inhibition of NF-κB activation (Figure3F): 81.2% and 86.7% and 75.9% and 78.4% and 98.7% and 81.3%
[1]; Concentration 1.5e-5, single replicates
  % inhibition of NF-κB activation (Figure3F): 101.6% and 99.3% (2×) and 95.7% and 105.1% and 123.3%
[1]; Concentration 3e-5, single replicates
  % inhibition of NF-κB activation (Figure3F): 104.2% and 102% and 99.9% and 101.1% and 123.3% and 102.7%
A2780 cells; [4]
  cell viability, cytotoxicity curve (Figure3H): 121.27 and 94.15
A2780 cells; [5]
  cell viability, cytotoxicity curve (Figure3H): 114.3 and 105.95
A2780 cells; [6]
  cell viability, cytotoxicity curve (Figure3H): 105.54 and 93.28
A2780 cells; [7]
  cell viability, cytotoxicity curve (Figure3H): 111.22 and 83.28
A2780 cells; [8]
  cell viability, cytotoxicity curve (Figure3H): 102.55 and 80.89
A2780 cells; A2780, Log conc. (M) 4.0738e-7
  cell viability, cytotoxicity curve (Figure3H): 93.7 and 80.77
A2780 cells; [9]
  cell viability, cytotoxicity curve (Figure3H): 109.2 and 106.39
A2780 cells; [10]
  cell viability, cytotoxicity curve (Figure3H): 104.11 and 96.04
A2780 cells; [11]
  cell viability, cytotoxicity curve (Figure3H): 67.93 and 61.64
A2780 cells; [12]
  cell viability, cytotoxicity curve (Figure3H): 4.85 and 2.91
A2780 cells; A2780, Log conc. (M) 0.0001
  cell viability, cytotoxicity curve (Figure3H): 1.49 and 1.08
[2]
  microsomal CLint at 1 µM: 4.6 µL/min/mg
[3]
  fraction unbound at 4 h, 10 µM: 0.001
Thermodynamic solubility
  solubility thermodynamic: < 1 µM

## Nc1nn(-c2ccc(CC(=O)Nc3noc4c3CCCC4)cc2)c2ccccc12 [compound 11]
[1]
  EC50: 10 µM
A2780 cells
  percentage cell viability: 1.69%
A2780 cells; [4]
  cell viability, cytotoxicity curve (Figure3H): 91.8 and 117.36
A2780 cells; [5]
  cell viability, cytotoxicity curve (Figure3H): 99.13 and 112.7
A2780 cells; [6]
  cell viability, cytotoxicity curve (Figure3H): 105.26 and 125.33
A2780 cells; [7]
  cell viability, cytotoxicity curve (Figure3H): 93.79 and 108.52
A2780 cells; [8]
  cell viability, cytotoxicity curve (Figure3H): 82.27 and 122.21
A2780 cells; A2780, Log conc. (M) 4.0738e-7
  cell viability, cytotoxicity curve (Figure3H): 73.45 and 78.71
A2780 cells; [9]
  cell viability, cytotoxicity curve (Figure3H): 82.77 and 87.65
A2780 cells; [10]
  cell viability, cytotoxicity curve (Figure3H): 59.52 and 70.03
A2780 cells; [11]
  cell viability, cytotoxicity curve (Figure3H): 22.19 and 22.95
A2780 cells; [12]
  cell viability, cytotoxicity curve (Figure3H): 6.15 and 7.44
A2780 cells; A2780, Log conc. (M) 0.0001
  cell viability, cytotoxicity curve (Figure3H): 1.69
A2780 cells; Homo sapiens
  viability at 100 µM: 1.43%
A2780 cells; Homo sapiens, A2780 cancer cells, 72 h, read-out: EC50 (loss of viability)
  EC50: 5.4 µM
HCT116 cells
  percentage cell viability: 20.29%
  viability at 100 µM: 20%
